# US10793575B2, “Oxoisoquinoline derivatives” (CARNA BIOSCIENCES, INC., priority 2016, dated 2020)
# Tests used:
# dephosphorylated BTK = dephosphorylated BTK (Homo sapiens (Human), UniProt Q06187); test: BTK Activity Inhibition Test (mobility shift assay); format: biochemical; conditions: 200 μM ATP, read-out: Inhibitory Activity on BTK
# Method: Dephosphorylated BTK was obtained by adding λ protein phosphatase (manufactured by New England BioLabs Inc., Code No. P0753S) and MnCl2 at 10 U/μg and 2 mM, respectively, to biotinylated BTK protein BTN-BTK (Manufactured by Carna Biosciences, Inc.) enzyme solution, reacting the mixture at 4° C. overnight, and removing of λ protein phosphatase by anti […]-tag antibody agarose gel chromatography, followed by buffer exchange using a 10DG Desalting Column.
# The kinase activity was measured using QuickScout Screening Assist (trade mark) MSA (commercially available kit manufactured by Carna Biosciences, Inc.) by mobility shift assay (MSA) method. The substrate of the kinase reaction was an FITC-labeled SRCtide peptide included in the kit. An assay buffer [20 mM HEPES, 0.01% Triton X-100 (Trade mark), 2 mM dithiothreitol, pH 7.5] was used and adjusted at 4 μM substrate, 20 mM MgCl2 and 200 μm ATP to obtain a substrate mixture solution. The enzyme solution was also prepared by diluting the dephosphorylated BTK to 0.46 nM using the assay buffer. The 10 mM solution of the test compound in DMSO was further diluted with DMSO to 10 levels of the concentration (0.00003 mM, 0.0001 mM, 0.0003 mM, 0.001 mM, 0.003 mM, 0.01 mM, 0.03 mM, 0.1 mM, 0.3 mM, 1 mM), each of which was subjected to a 25-fold dilution with the assay buffer to obtain the drug solutions (4% DMSO solutions). 5 μL of the drug solution or a control solution (4% DMSO-assay buffer), 5 μL of the substrate mixture solution, and 10 μL of the enzyme solution were mixed in the wells of a polypropylene 384-well plate and allowed to react at room temperature for 2 hours, and then quenched by adding 60 μL of the termination buffer included in the kit. Subsequently, the quantities of the substrates (S) and the phosphorylated substrate (P) in the reaction solution were measured using LabChip EZ Reader II system (manufactured by Caliper Life Sciences) according to the protocol of the assay kit.
# (§1) The heights of the peaks of the isolated substrate and the phosphorylated substrate were represented as S and P, respectively, and a blank which contained the assay buffer instead of the enzyme solution was also measured.
# (§2) The inhibition rate (%) of the test compound was calculated according to the following equation; Inhibition rate (%)=(1−(C−A)/(B−A))×100 • wherein, A, B and C represent P/(P+S) of the blank well, P/(P+S) of the control well and P/(P+S) of the compound-containing well, respectively.
# (§3) The IC50 value was calculated via a regression analysis of the inhibition rate (%) and the test compound concentration (logarithmic value).
# OCI-Ly10 cells = test: Proliferation-Inhibitory Test Against Diffuse Large-Cell B-Cell Lymphoma OCI-Ly10 Strain; format: cell-based; conditions: Homo sapiens, 96 hours, alamarBlue
# In short: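 In IMDM with 20% FBS, OCI-Ly10 cells (20000 cells/well) were exposed to compound at 0.9 nM to 30000 nM (0.3% DMSO final) for 96 hours. Viability was then read with alamarBlue reagent.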
# [1] = target: C481S mutant BTK [BTK(C481S)] (Homo sapiens (Human), UniProt Q06187, C481S); test: C481S Mutant BTK Inhibitory Activity Test (mobility shift assay); format: biochemical; conditions: for IC50: C481S mutant BTK, 100 μM ATP; for C481S mutation-resistance: IC50[BTK(C481S)]/IC50[BTK(WT)]
# Sequence of C481S mutant BTK [BTK(C481S)] (Q06187 whole entry C481S): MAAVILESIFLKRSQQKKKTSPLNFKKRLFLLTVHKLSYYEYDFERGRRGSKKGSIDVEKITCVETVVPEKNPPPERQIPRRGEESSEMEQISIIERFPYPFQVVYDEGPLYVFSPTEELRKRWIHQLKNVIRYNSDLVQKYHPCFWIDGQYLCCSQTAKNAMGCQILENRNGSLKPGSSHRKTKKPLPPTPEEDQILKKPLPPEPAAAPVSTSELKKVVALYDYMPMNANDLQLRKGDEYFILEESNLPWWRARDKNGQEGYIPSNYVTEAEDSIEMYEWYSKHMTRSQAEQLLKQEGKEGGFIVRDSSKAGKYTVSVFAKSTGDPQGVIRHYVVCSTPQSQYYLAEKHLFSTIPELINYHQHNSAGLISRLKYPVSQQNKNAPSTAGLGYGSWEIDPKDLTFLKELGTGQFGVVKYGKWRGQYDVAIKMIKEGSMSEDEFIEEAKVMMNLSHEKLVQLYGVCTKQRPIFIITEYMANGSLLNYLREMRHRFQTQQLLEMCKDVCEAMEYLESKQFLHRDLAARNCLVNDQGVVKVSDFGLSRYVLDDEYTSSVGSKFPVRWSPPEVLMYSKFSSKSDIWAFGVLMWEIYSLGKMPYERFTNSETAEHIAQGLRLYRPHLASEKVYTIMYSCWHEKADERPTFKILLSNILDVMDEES
# Method: (§4) The kinase activity was measured using QuickScout Screening Assist (trademark) MSA (commercially available kit manufactured by Carna Biosciences, Inc.) by mobility shift assay (MSA) method. The substrate of the kinase reaction was an FITC-labeled SRCtide peptide included in the kit. […] The 10 mM solution of the test compound in DMSO was further diluted with DMSO to 10 levels of the concentration (0.00003 mM, 0.0001 mM, 0.0003 mM, 0.001 mM, 0.003 mM, 0.01 mM, 0.03 mM, 0.1 mM, 0.3 mM, 1 mM), each of which was subjected to a 25-fold dilution with the assay buffer to obtain the drug solutions (4% DMSO solutions).
# (§5) 5 μL of the drug solution or a control solution (4% DMSO-assay buffer), 5 μL of the substrate mixture solution, and 10 μL of the enzyme solution were mixed in the wells of a polypropylene 384-well plate and allowed to react at room temperature for 1 hour, and then quenched by adding 60 μL of the termination buffer included in the kit. Subsequently, the quantities of the substrates (S) and the phosphorylated substrate (P) in the reaction solution were measured using LabChip EZ Reader II system (manufactured by Caliper Life Sciences) according to the protocol of the assay kit.
# as §1, §2, §3
# wild type BTK [BTK(WT)] = wild type BTK [BTK(WT)] (Homo sapiens (Human), UniProt Q06187); test: C481S Mutant BTK Inhibitory Activity Test, wild type BTK (mobility shift assay); format: biochemical; conditions: 120 μM ATP
# Sequence of wild type BTK [BTK(WT)] (Q06187 whole entry): as the sequence (Q06187 whole entry C481S) above, with S481C counted along it
# Method: as §4, §5, §1, §2, §3
# Sequence of dephosphorylated BTK (Q06187 whole entry): as the sequence (Q06187 whole entry C481S) above, with S481C counted along it
IC50 (dephosphorylated BTK),IC50 (OCI-Ly10 cells),IC50 [1],C481S mutation-resistance [1],IC50 (wild type BTK [BTK(WT)]),SMILES
< 10 nM,499 nM,,,,"Nc1nc(-c2cccc(-n3ccc4cc(C5CC5)cc(F)c4c3=O)c2CO)c2cc(-c3ccc(C(F)(F)F)cc3)[nH]c2n1 [Example 37, 2-(3-{2-amino-6-[4-(trifluoromethyl)phenyl]-7H-pyrrolo[2,3-d]pyrimidin-4-yl}-2-(hydroxymethyl)phenyl)-6-cyclopropyl-8-fluoroisoquinolin-1(2H)-one]"
10 to 100 nM,366 nM,,,,"Nc1nc(-c2cccc(-n3ccc4cc(C5CC5)cc(F)c4c3=O)c2CO)c2cc(-c3ccc(OC(F)(F)F)cc3)[nH]c2n1 [Example 38, 2-(3-{2-amino-6-[4-(trifluoromethoxy)phenyl]-7H-pyrrolo[2,3-d]pyrimidin-4-yl}-2-(hydroxymethyl)phenyl)-6-cyclopropyl-8-fluoroisoquinolin-1(2H)-one]"
,10 nM,0.78 nM,1.8,0.43 nM,"CN(C)Cc1ccc(-c2cc3c(-c4cccc(-n5ccc6cc(C7CC7)cc(F)c6c5=O)c4CO)nc(N)nc3[nH]2)cc1 [Example 51, 2-[3-(2-amino-6-{4-[(dimethylamino)methyl]phenyl}-7H-pyrrolo[2,3-d]pyrimidin-4-yl)-2-(hydroxymethyl)phenyl]-6-cyclopropyl-8-fluoroisoquinolin-1(2H)-one]"
,15 nM,0.76 nM,1.8,0.43 nM,"CCN(CC)Cc1ccc(-c2cc3c(-c4cccc(-n5ccc6cc(C7CC7)cc(F)c6c5=O)c4CO)nc(N)nc3[nH]2)cc1 [Example 52, 2-[3-(2-amino-6-{4-[(diethylamino)methyl]phenyl}-7H-pyrrolo[2,3-d]pyrimidin-4-yl)-2-(hydroxymethyl)phenyl]-6-cyclopropyl-8-fluoroisoquinolin-1(2H)-one]"
,25 nM,0.9 nM,1.8,0.51 nM,"Nc1nc(-c2cccc(-n3ccc4cc(C5CC5)cc(F)c4c3=O)c2CO)c2cc(-c3ccc(CN4CCCC4)cc3)[nH]c2n1 [Example 53, 2-(3-{2-amino-6-[4-(pyrrolidin-1-ylmethyl)phenyl]-7H-pyrrolo[2,3-d]pyrimidin-4-yl}-2-(hydroxymethyl)phenyl)-6-cyclopropyl-8-fluoroisoquinolin-1(2H)-one]"
,17 nM,0.86 nM,1.5,0.58 nM,"Nc1nc(-c2cccc(-n3ccc4cc(C5CC5)cc(F)c4c3=O)c2CO)c2cc(-c3ccc(CN4CCCCC4)cc3)[nH]c2n1 [Example 54, 2-(3-{2-amino-6-[4-(piperidin-1-ylmethyl)phenyl]-7H-pyrrolo[2,3-d]pyrimidin-4-yl}-2-(hydroxymethyl)phenyl)-6-cyclopropyl-8-fluoroisoquinolin-1(2H)-one]"

# Further lines, the compound ahead of its results:
SMILES,IC50 (dephosphorylated BTK),IC50 (OCI-Ly10 cells),IC50 [1],C481S mutation-resistance [1],IC50 (wild type BTK [BTK(WT)])
"Nc1nc(-c2cccc(-n3ccc4cc(C5CC5)cc(F)c4c3=O)c2CO)c2cc(-c3ccc(F)cc3F)[nH]c2n1 [Example 35, 2-{3-[2-amino-6-(2,4-difluorophenyl)-7H-pyrrolo[2,3-d]pyrimidin-4-yl]-2-(hydroxymethyl)phenyl}-6-cyclopropyl-8-fluoroisoquinolin-1(2H)-one]",< 10 nM,428 nM,,,
"Nc1nc(-c2cccc(-n3ccc4cc(C5CC5)cc(F)c4c3=O)c2CO)c2cc(-c3ccc(F)c(F)c3)[nH]c2n1 [Example 36, 2-{3-[2-amino-6-(3,4-difluorophenyl)-7H-pyrrolo[2,3-d]pyrimidin-4-yl]-2-(hydroxymethyl)phenyl}-6-cyclopropyl-8-fluoroisoquinolin-1(2H)-one]",< 10 nM,450 nM,,,
"NCc1cc2c(-c3cccc(-n4ccc5cc(C6CC6)cc(F)c5c4=O)c3CO)nc(N)nc2[nH]1 [Example 39, 2-{3-[2-amino-6-(aminomethyl)-7H-pyrrolo[2,3-d]pyrimidin-4-yl]-2-(hydroxymethyl)phenyl}-6-cyclopropyl-8-fluoroisoquinolin-1(2H)-one]",10 to 100 nM,1050 nM,,,
"Nc1nc(-c2cccc(-n3ccc4cc(C5CC5)cc(F)c4c3=O)c2CO)c2cc(-c3cccc(C(F)(F)F)c3)[nH]c2n1 [Example 40, 2-(3-{2-amino-6-[3-(trifluoromethyl)phenyl]-7H-pyrrolo[2,3-d]pyrimidin-4-yl}-2-(hydroxymethyl)phenyl)-6-cyclopropyl-8-fluoroisoquinolin-1(2H)-one]",< 10 nM,1330 nM,,,
"CNc1cc(-c2cc3c(-c4cccc(-n5ccc6cc(C7CC7)cc(F)c6c5=O)c4CO)nc(N)nc3[nH]2)ccn1 [Example 50, 2-(3-{2-amino-6-[2-(methylamino)pyridin-4-yl]-7H-pyrrolo[2,3-d]pyrimidin-4-yl}-2-(hydroxymethyl)phenyl)-6-cyclopropyl-8-fluoroisoquinolin-1(2H)-one]",,52 nM,1.6 nM,2.1,0.77 nM
"Nc1nc(-c2cccc(-n3ccc4cc(C5CC5)cc(F)c4c3=O)c2CO)c2cc(-c3ccc(CN4CCN(CCO)CC4)cc3)[nH]c2n1 [Example 61, 2-{3-[2-amino-6-(4-{[4-(2-hydroxyethyl)piperazin-1-yl]methyl}phenyl)-7H-pyrrolo[2,3-d]pyrimidin-4-yl]-2-(hydroxymethyl)phenyl}-6-cyclopropyl-8-fluoroisoquinolin-1(2H)-one]",,5 nM,0.57 nM,1.6,0.36 nM
"CN1CCN(C(=O)N2CC=C(c3cc4c(-c5cccc(-n6ccc7cc(C8CC8)cc(F)c7c6=O)c5CO)nc(N)nc4[nH]3)CC2)CC1 [Example 71, 2-(3-{2-amino-6-[1-(4-methylpiperazine-1-carbonyl)-1,2,3,6-tetrahydropyridin-4-yl]-7H-pyrrolo[2,3-d]pyrimidin-4-yl}-2-(hydroxymethyl)phenyl)-6-cyclopropyl-8-fluoroisoquinolin-1(2H)-one]",,,0.58 nM,1.5,0.39 nM
"CN(C)C(=O)N1CC=C(c2cc3c(-c4cccc(-n5ccc6cc(C7CC7)cc(F)c6c5=O)c4CO)nc(N)nc3[nH]2)CC1 [Example 87, 4-{2-amino-4-[3-(6-cyclopropyl-8-fluoro-1-oxoisoquinolin-2(1H)-yl)-2-(hydroxymethyl)phenyl]-7H-pyrrolo[2,3-d]pyrimidin-6-yl}-N,N-dimethyl-5,6-dihydropyridine-1(2H)-carboxamide]",,,0.95 nM,1.8,0.52 nM
"Nc1nc(-c2cccc(-n3ccc4cc(C5CC5)cc(F)c4c3=O)c2CO)c2cc(C3=CCNCC3)[nH]c2n1 [Example 93, 2-{3-[2-amino-6-(1,2,3,6-tetrahydropyridin-4-yl)-7H-pyrrolo[2,3-d]pyrimidin-4-yl]-2-(hydroxymethyl)phenyl}-6-cyclopropyl-8-fluoroisoquinolin-1(2H)-one]",,,0.99 nM,2.4,0.41 nM
